Measured values published in patent publication US12528819B2 (priority 2016, dated 2026).
pKi: −log10 of the molar value. Entries after “also recorded” stand apart in the source; their conditions may differ. Read-outs that look alike come from different tables or passages of the source.

Legend:
α5β3γ2 GABAA receptors = target: T1, α5β3γ2 GABAA receptors (Homo sapiens, UniProt P18507+P31644); test: Binding activity of test compounds on GABAAR: inhibition of [3H]Ro15-1788 binding, membranes of Ltk cells
T1 construct: membranes
T1 sequence (P31644 32-462): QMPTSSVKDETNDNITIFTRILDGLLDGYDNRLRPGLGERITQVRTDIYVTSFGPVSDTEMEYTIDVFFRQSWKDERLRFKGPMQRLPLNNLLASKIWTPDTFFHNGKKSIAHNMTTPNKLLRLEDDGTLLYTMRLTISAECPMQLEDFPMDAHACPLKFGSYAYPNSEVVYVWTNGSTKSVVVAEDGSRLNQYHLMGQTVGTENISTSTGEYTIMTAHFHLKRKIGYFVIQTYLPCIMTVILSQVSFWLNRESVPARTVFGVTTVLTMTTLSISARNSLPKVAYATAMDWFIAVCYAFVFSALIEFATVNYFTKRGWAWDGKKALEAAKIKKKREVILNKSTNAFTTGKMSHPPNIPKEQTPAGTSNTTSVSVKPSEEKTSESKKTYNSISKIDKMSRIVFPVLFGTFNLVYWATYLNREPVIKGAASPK
T1 sequence (P28472 26-473 partner): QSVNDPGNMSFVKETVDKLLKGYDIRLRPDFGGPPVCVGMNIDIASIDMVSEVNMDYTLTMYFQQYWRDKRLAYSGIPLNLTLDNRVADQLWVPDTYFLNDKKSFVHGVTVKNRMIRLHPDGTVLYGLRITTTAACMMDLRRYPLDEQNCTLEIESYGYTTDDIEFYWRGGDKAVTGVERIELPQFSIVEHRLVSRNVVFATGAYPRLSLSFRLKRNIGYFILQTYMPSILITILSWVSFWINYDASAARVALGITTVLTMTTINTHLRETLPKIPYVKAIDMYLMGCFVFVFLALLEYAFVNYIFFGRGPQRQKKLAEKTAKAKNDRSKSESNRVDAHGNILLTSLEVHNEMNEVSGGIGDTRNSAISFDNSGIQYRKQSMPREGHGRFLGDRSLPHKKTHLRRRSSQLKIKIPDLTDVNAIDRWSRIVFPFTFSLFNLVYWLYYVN
T1 sequence (P18507 40-467 limits assumed): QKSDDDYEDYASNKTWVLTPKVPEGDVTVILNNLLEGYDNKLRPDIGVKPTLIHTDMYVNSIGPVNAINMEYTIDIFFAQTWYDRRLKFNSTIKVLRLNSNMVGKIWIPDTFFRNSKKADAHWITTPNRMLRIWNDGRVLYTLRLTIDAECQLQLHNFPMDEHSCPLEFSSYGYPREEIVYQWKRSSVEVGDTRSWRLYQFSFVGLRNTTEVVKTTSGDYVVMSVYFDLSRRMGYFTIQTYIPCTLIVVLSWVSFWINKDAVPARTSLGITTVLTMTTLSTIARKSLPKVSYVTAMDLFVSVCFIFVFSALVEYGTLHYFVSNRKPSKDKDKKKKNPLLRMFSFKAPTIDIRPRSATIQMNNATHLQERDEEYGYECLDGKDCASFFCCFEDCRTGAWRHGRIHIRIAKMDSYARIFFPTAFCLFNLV
Procedure: (A) Binding activity of test compounds on GABAAR
Tissue culture and Membrane Preparation: The binding was performed on Ltk cells stably expressing GABAA receptors: α1β1γ2, α2β3γ2, α3β3γ2 and α5β3γ2 (provided by Merck Co., NJ, USA). Cells were seeded in 100 mm culture plates in DMEM/F12 medium containing 10% scrum and antibiotics in 5% CO2 and allowed to grow for 1-2 days. GABAAR expression was then induced by dexamethasone as follows: 0.5 μM for 1 day for α5 containing and 2 μM for 3 days for α1, α2 and α3 containing GABAARs. After induction, cells were collected by scraping into Dulbecco's Phosphate buffered saline (DPBS, pH 7.4, Invitrogen, Carlsbad, CA, USA) and centrifuged at 150×g for 10 min. The pellet was washed twice by re-suspension and centrifugation. The cell pellets from at least 5 different preps were combined, suspended in the binding assay buffer (50 mM KH2PO4; 1 mM EDTA; 0.2 M KCl, pH 7.4) and membranes prepared by sonication (3-5 times, 30 sec) using Branson Sonifier 150 (G. Heinmann, Germany). Protein content was determined using BCA assay (Bio-Rad Labs, Reinach, Switzerland) with Bovine Serum Albumin (Sigma Aldrich, St. Louis, MO, USA) as the standard. Aliquots were prepared and stored at −20° C. for further use in binding assays.
Ligand Binding: Saturation binding curves were obtained by incubating membranes with increasing concentrations (0.01-8 nM) of [^3H]Rol5-1788 (Flumazepil, 75-85 Ci/mmol, PerkinElmer, MA, USA), with nonspecific binding measured in the presence of 10 μM diazepam.
All binding assays were performed for 1 h at 4° C. in assay buffer. The total assay volume was 0.5 ml containing 0.2 mg/ml protein for α5 and 0.4 mg/ml for α1, α2, and α3 containing GABAAR membranes. Incubations were terminated by filtration through GF/B filters using a 24-Cell Harvestor (Brandel, Gaithersburg, MD, USA) followed by 3 washes with ice-cold assay buffer. […] Next day, radioactivity was obtained using a scintillation counter (Beckman Coulter, Brea, CA, USA). […]

α5β2γ2 subtype GABAAR = target: T2, α5β2γ2 subtype GABAAR (Homo sapiens, UniProt P18507+P31644); test: Positive allosteric modulator activity: potentiation of EC20 GABA current in oocytes; format: cell-based; details: read-out: GABA α5 Functional Data (potentiation), @ 100 nM, reported as ranges
T2 construct: expressed in transfected cells
T2 sequence (P31644 32-462): T1 sequence (P31644 32-462)
T2 sequence (P47870 25-512 partner limits assumed): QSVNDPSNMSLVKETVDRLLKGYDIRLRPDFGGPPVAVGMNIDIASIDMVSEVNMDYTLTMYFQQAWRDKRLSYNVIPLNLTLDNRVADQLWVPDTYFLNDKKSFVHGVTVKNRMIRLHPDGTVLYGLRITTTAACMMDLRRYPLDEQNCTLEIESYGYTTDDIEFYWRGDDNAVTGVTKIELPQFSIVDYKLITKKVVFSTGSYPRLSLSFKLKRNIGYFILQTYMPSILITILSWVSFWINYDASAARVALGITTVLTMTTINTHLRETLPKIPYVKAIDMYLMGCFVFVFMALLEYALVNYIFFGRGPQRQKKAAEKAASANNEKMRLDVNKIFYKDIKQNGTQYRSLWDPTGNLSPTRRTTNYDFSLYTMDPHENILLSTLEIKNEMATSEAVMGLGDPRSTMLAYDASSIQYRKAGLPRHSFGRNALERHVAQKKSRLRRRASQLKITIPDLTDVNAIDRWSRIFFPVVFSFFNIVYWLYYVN
T2 sequence (P18507 40-467 limits assumed): T1 sequence (P18507 40-467 limits assumed)
Method in brief: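 Xenopus oocytes injected with 1 ng α5:β2:γ2 cDNA (1:1:10 by weight) and recorded on day 2 by two-electrode voltage clamp under MBS superfusion. Potentiation (%) = Itest/IGABA at EC20 GABA; each oocyte used for one concentration only.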

[1] = format: in vivo, rat; details: for Hippocampus exposure / Plasma exposure / Young Hippocampus exposure / Young Plasma exposure: young Long Evans rats; for Aged Hippocampus exposure / Aged Plasma exposure: aged Long Evans rats
Procedure: (§1) Food and water were available ad libitum.
For plasma exposures, blood samples were centrifuged at 14000 rpm for 16 minutes. After centrifuging, 50 ul of supernatant (plasma) from each sample was added to 200 μl of acetonitrile plus 0.1% formic acid. […] Samples were sonicated for 5 minutes in an ultrasonic water bath, followed by centrifugation for 30 minutes, at 16000 RPM. 100 ul of supernatant was removed from each sample vial and placed in a new glass auto sample vial, followed by the addition of 300 μl of sterile water (pH 6.5).
Additional studies were conducted in aged Long-Evans rats in order to determine the exposures at the behaviorally relevant doses in the cognition studies. Exposure in young Long-Evans rats was also determined to bridge with the receptor occupancy studies that were conducted in young Long-Evans rats. Exposures in young and aged Long-Evans rats were relatively similar (Table 4, FIG. 4).

GABAA α5 receptor = target: T3, GABAA α5 receptor (Rattus norvegicus, UniProt P18508+P19969); test: GABAA α5 receptor occupancy with Ro 15-4513 tracer (hippocampus vs cerebellum); format: in vivo; details: for % RO (L-655,708 Method): young Long Evans rats
T3 construct: from tissue; host or cells: rat brain in vivo; hippocampus versus cerebellum
Excerpt: as §1

aged-impaired (AI) rats = test: Radial Arm Maze (RAM) behavioral task, spatial memory retention; format: in vivo, rat; details: two-hour delay
Procedure: The effects of methyl 3,5-diphenylpyridazine-4-carboxylate on the in vivo spatial memory retention of aged-impaired (AI) rats were assessed in a Radial Arm Maze (RAM) behavioral task using vehicle control and four different dosage levels of methyl 3,5-diphenylpyridazine-4-carboxylate (0.1 mg/kg, 0.3 mg/kg, 1 mg/kg and 3 mg/kg, ip). RAM behavioral tasks were performed on eight AI rats. All five treatment conditions (vehicle and four dosage levels) were tested on all eight rats.
The RAM apparatus used consisted of eight equidistantly-spaced arms. An elevated maze arm (7 cm width×75 cm length) projected from each facet of an octagonal center platform (30 cm diameter, 51.5 cm height). Clear side walls on the arms were 10 cm high and were angled at 65° to form a trough. A food well (4 cm diameter, 2 cm deep) was located at the distal end of each arm. Froot Loops™ (Kellogg Company) were used as rewards. Blocks constructed of Plexiglas™ (30 cm height×12 cm width) could be positioned to prevent entry to any arm. Numerous extra maze cues surrounding the apparatus were also provided.
The AI rats were initially subjected to a pre-training test (Chappell et al. Neuropharmacology 37: 481-487, 1998). The pre-training test consisted of a habituation phase (4 days), a training phase on the standard win-shift task (18 days) and another training phase (14 days) in which a brief delay was imposed between presentation of a subset of arms designated by the experimenter (e.g., 5 arms available and 3 arms blocked) and completion of the eight-arm win-shift task (i.e., with all eight arms available).
In the habituation phase, rats were familiarized to the maze for an 8-minute session on four consecutive days. In each of these sessions, food rewards were scattered on the RAM, initially on the center platform and arms and then progressively confined to the arms. After this habituation phase, a standard training protocol was used, in which a food pellet was located at the end of each arm. Rats received one trial each day for 18 days. Each daily trial terminated when all eight food pellets had been obtained or when either 16 choices were made or 15 minutes had elapsed. After completion of this training phase, a second training phase was carried out in which the memory demand was increased by imposing a brief delay during the trial. At the beginning of each trial, three arms of the eight-arm maze were blocked. Rats were allowed to obtain food on the five arms to which access was permitted during this initial “information phase” of the trial. Rats were then removed from the maze for 60 seconds, during which time the barriers on the maze were removed, thus allowing access to all eight arms. […]

α5-containing GABAA R = target: T4, α5-containing GABAA R (Homo sapiens, UniProt P18507+P31644); details: EC20; cited from earlier work
T4 sequence (P31644 32-462): T1 sequence (P31644 32-462)
T4 sequence (P28472 26-473 partner): T1 sequence (P28472 26-473 partner)
T4 sequence (P18507 40-467 limits assumed): T1 sequence (P18507 40-467 limits assumed)

T3 sequence (P19969 32-464 limits assumed): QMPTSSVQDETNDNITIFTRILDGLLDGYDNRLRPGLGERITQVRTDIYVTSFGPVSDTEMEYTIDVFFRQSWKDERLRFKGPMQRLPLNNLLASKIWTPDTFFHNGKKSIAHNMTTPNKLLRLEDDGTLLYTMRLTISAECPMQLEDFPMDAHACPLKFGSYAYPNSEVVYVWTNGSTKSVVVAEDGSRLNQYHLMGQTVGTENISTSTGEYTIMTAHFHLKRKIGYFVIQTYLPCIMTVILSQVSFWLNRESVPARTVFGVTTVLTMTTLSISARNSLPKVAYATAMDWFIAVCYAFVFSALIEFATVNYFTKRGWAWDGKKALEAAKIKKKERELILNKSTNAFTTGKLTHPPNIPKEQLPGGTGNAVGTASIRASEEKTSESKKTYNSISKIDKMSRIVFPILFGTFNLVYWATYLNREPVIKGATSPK
T3 sequence (P18508 39-466): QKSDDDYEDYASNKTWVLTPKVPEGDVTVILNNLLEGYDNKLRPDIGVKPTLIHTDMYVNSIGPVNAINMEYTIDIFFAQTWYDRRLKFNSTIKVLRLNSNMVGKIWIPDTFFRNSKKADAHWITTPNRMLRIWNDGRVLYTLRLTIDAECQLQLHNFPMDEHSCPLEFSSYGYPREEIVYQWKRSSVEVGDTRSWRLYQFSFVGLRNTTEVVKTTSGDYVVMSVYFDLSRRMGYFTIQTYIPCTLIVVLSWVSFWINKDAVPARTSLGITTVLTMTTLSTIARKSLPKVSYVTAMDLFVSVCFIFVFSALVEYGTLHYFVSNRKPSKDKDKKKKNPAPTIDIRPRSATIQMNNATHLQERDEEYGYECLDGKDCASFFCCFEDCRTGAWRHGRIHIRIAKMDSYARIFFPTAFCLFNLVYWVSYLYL

COC1C=C2C(=CC1)n1cnc(-c3noc(C(C)C)n3)c1Cn1c(COc3ccccc3Cl)nnc12 (stereo not shown) [Compound 175]
pKi (α5β3γ2 GABAA receptors): > 7.00
activation at 0.1 µM (α5β2γ2 subtype GABAAR): 20 to 50%

C#Cc1ccc2c(c1)-n1nnc(COC)c1Cc1c(C3=N[C@@H](C(C)C)CO3)ncn1-2 [Compound 384]
pKi (α5β3γ2 GABAA receptors): 6.00 to 7.00

COCc1nnc2n1Cc1c(-c3ncco3)ncn1-c1cc(Cl)ccc1-2 [Compound 458]
pKi (α5β3γ2 GABAA receptors; reported as ranges): < 6.00

COC(=O)c1c(-c2ccccc2)cnnc1-c1ccccc1 [methyl 3,5-diphenylpyridazine-4-carboxylate]
Hippocampus exposure ([1]; 0.01 mg/kg i.v.): BQL
Plasma exposure ([1]; 0.01 mg/kg i.v.): BQL
Plasma exposure ([1]; 0.1 mg/kg i.v.): BQL
Hippocampus exposure ([1]; 1 mg/kg i.v.): 180.0 ng/g
Aged Hippocampus exposure ([1]; 1 mg/kg ip): 38.8 ng/g
Aged Plasma exposure ([1]; 1 mg/kg ip): 45.2 ng/mL
Young Hippocampus exposure ([1]; 1 mg/kg ip): 25.9 ng/g
Young Plasma exposure ([1]; 1 mg/kg ip): 20.0 ng/mL
Aged Hippocampus exposure ([1]; 3 mg/kg ip): 177.5 ng/g
Aged Plasma exposure ([1]; 3 mg/kg ip): 196 ng/mL
Young Hippocampus exposure ([1]; 3 mg/kg ip): 129.1 ng/g
Young Plasma exposure ([1]; 3 mg/kg ip): 132.9 ng/mL
brain/plasma ratios ([1]; Long Evans, rat, in vivo): > 1
increase in hippocampal exposure ([1]; dose from 0.1 to 1 mg/kg, i.v.): 12 fold
increase in hippocampal exposure ([1]; dose from 1 to 10 mg/kg, i.v.): ~5 fold
increase in plasma exposure ([1]; dose from 1 to 10 mg/kg, i.v.): 12 fold
% RO (L-655,708 Method) (GABAA α5 receptor; 0.01 mg/kg i.v.): 19.2%
% RO (L-655,708 Method) (GABAA α5 receptor; 0.1 mg/kg i.v.): 16.4%
% RO (L-655,708 Method) (GABAA α5 receptor; 1 mg/kg i.v.): 38.5%
effect on Ro 15-4513 binding in hippocampus (GABAA α5 receptor; 0.01-10 mg/kg, i.v.): dose-dependently reduced; also recorded: blocked
effect on Ro 15-4513 levels (binding) in cerebellum (GABAA α5 receptor; 0.01-10 mg/kg, i.v.): without affecting; also recorded: did not affect
GABAA α5 receptors occupied (GABAA α5 receptor; at exposures behaviorally active in aged-impaired rats (FIG. 4)): about 32%
receptor occupancy at 10 mg/kg (GABAA α5 receptor; rat, iv, 10 mg/kg): > 90%
ED50 (GABAA α5 receptor; rat, iv, ratio method): 1.8 mg/kg
average no. of errors ± SEM, retention test (aged-impaired (AI) rats; 3 mg/kg ip): 1.31±0.40
memory performance relative to vehicle control (aged-impaired (AI) rats; 3 mg/kg, t(7)=4.233, p=0.004): significantly improved memory performance
α5 in vitro efficacy (α5-containing GABAA R): +27
